From US6441029B1, “Method of suppressing tumor growth with combinations of isoprenoids and statins” (Wisconsin Alumni Research Foundation, priority 1997, dated 2002)
“And” between values parts separate entries of the source, which are not always exact repeats. Identical values can stand only once.

How the values were obtained:
[1] = tested on: murine melanoma B16/F10 cells; experiment: In vitro growth assays of lovastatin, β-ionone and γ-tocotrienol alone and combined (Table 5); format: cell-based
[2] = up to 80 mg/d, five-year follow-up of 745 patients (14 observed, 21 predicted); cited from earlier work
[3] = tested on: implanted murine melanoma B16F10 tumors; conditions: 50 mg/kg administered ip on alternate days; cited from earlier work
[4] = cited from earlier work

CC[C@H](C)C(=O)O[C@H]1C[C@@H](C)C=C2C=C[C@H](C)[C@H](CC[C@@H]3C[C@@H](O)CC(=O)O3)[C@H]21 [Lovastatin, [1S[1a(R),3α,7β,8β(2S,4S),8aβ]]-1,2,3,7,8,8a-hexahydro-3,7-dimethyl-8-[2-(tetrahydro-4-hydroxy-6-oxo-2H-pyran-2-yl)ethyl]-1-maphthalenyl-2-methylbutanoate, reference compound]
Growth ([1]; 1.5 μmol/L): 71 % of Control
decrease in cell growth ([1]; 2 μM): 50%
Growth ([1]; 2 μmol/L): 50 % of Control and 60 % of Control
Growth ([1]; 2 μmol/L, listed as lovastatin): 50 % of Control
Growth ([1]; 3 μmol/L): 53 % of Control
growth rate relative to controls ([1]; 1.9±0.3 μmol/l, protocol of He, et al.): 61.4±4.6 % the rate of controls
reduction in cancer incidence [2]: 33%
growth of implanted murine melanoma B16F10 tumors [3]: suppressed
dose level at which the incidence and severity of toxicity increased markedly ([4]; Phase I, 7-day courses given monthly, doses 2 to 45 mg/kg): 25 mg/kg
total episodes of toxicity ([4]; sixty of 88 patients): 128 episodes
